{"source": "patent US6426355B1", "about": "“Heterocyclic carboxamide-containing thiourea inhibitors of herpes viruses containing phenylenediamine group” (American Home Products, priority 1998, dated 2002)", "key": {"[1]": {"test_system": "HCMV recombinant mutant virus (RV145)", "test": "HCMV microtiter plate assay (beta-glucuronidase reporter)", "type": "cell-based, Human Cytomegalovirus", "conditions": "for IC50: Human betaherpesvirus 5, Fibroblast, read-out: IC50 (ug/ml) HCMV", "summary_of_the_method": "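Human foreskin fibroblasts were infected with RV145 in the presence of inhibitor. β-glucuronidase under a viral promoter served as the replication marker. At 96 h post-infection, lysates in pH 7.0 phosphate with Triton X-100/sarkosyl were assayed colorimetrically or fluorometrically, and IC50 was estimated from varying inhibitor amounts.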"}, "[2]": {"test_system": "VZV strain Ellen", "test": "VZV Antiviral (ELISA) assay", "type": "cell-based", "conditions": "for IC50: Human alphaherpesvirus 3, VZV strain Ellen in HFF cells, read-out: IC50 (ug/ml) VZV", "summary_of_the_method": "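Cell-based VZV (Ellen) spread assay in HFF, 3-day compound exposure in 2% FBS medium. Viral antigen quantified by fluorescent β-galactosidase ELISA; IC50 from inhibition of signal.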"}, "[3]": {"test_system": "HSV-1", "test": "HSV Antiviral (ELISA) assay", "type": "cell-based", "conditions": "for IC50: Human alphaherpesvirus 1, HSV-1 in Vero cells, read-out: IC50 (ug/ml) HSV", "summary_of_the_method": "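Vero cells in DMEM/2% FBS pretreated with compound 30 min before HSV-1 infection (MOI 0.006), then ~24 h at 37 °C. Viral gD detected by ELISA with β-galactosidase secondary and 4-methylumbelliferyl-galactoside (ex 365/em 450 nm); IC50 from fluorescence versus untreated infected cells.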"}}}
{"compound": "Cc1cc(NC(=S)NC(C)c2ccc(F)cc2)ccc1NC(=O)c1cc2ccccc2cn1", "note": "(stereo not shown) [Example 1126, Isoquinoline-3-carboxylic acid (4-{3-[1-(4-fluoro-phenyl)-ethyl]-thioureido}-2-methyl-phenyl)-amide]", "values": [{"measurement": "IC50", "setting": "[1]", "result": 5.8, "unit": "µg/mL"}, {"measurement": "IC50", "setting": "[2]", "result": 0.7, "unit": "µg/mL"}, {"measurement": "IC50", "setting": "[3]", "result": "> 10", "unit": "µg/mL"}]}
{"compound": "CC(NC(=S)Nc1ccc(NC(=O)c2cnccn2)cc1)c1ccc(F)cc1", "note": "(stereo not shown) [Example 1127, Pyrazine-2-carboxylic acid (4-{3-[1-(4-fluoro-phenyl)-ethyl]-thioureido}-phenyl)-amide]", "values": [{"measurement": "IC50", "setting": "[1]", "result": 1, "unit": "µg/mL"}, {"measurement": "IC50", "setting": "[2]", "result": 3.7, "unit": "µg/mL"}, {"measurement": "IC50", "setting": "[3]", "result": 9.5, "unit": "µg/mL"}]}
{"compound": "CC(NC(=S)Nc1ccc(NC(=O)c2cccs2)cc1)c1ccc(F)cc1", "note": "(stereo not shown) [Example 1128, Thiophene-2-carboxylic acid (4-{3-[1-(4-fluoro-phenyl)-ethyl]-thioureido}-phenyl)-amide]", "values": [{"measurement": "IC50", "setting": "[1]", "result": 1.3, "unit": "µg/mL"}, {"measurement": "IC50", "setting": "[2]", "result": "> 10", "unit": "µg/mL"}, {"measurement": "IC50", "setting": "[3]", "result": "> 10", "unit": "µg/mL"}]}
{"compound": "CC(NC(=S)Nc1ccc(NC(=O)c2ccsc2)cc1)c1ccc(F)cc1", "note": "(stereo not shown) [Example 1129, Thiophene-3-carboxylic acid (4-{3-[1-(4-fluoro-phenyl)-ethyl]-thioureido}-phenyl)-amide]", "values": [{"measurement": "IC50", "setting": "[1]", "result": 1, "unit": "µg/mL"}, {"measurement": "IC50", "setting": "[2]", "result": "> 10", "unit": "µg/mL"}, {"measurement": "IC50", "setting": "[3]", "result": 1.9, "unit": "µg/mL"}]}
{"compound": "CC(C)c1nc(C(=O)Nc2ccc(NC(=S)Nc3ccc(Cl)c(C(F)(F)F)c3)cc2)cs1", "note": "[Example 1130, 2-Isopropyl-thiazole-4-carboxylic acid {4-[3-(4-chloro-3-trifluoromethyl-phenyl)-thioureido]-phenyl}-amide]", "values": [{"measurement": "IC50", "setting": "[1]", "result": 2, "unit": "µg/mL"}, {"measurement": "IC50", "setting": "[2]", "result": 5.5, "unit": "µg/mL"}, {"measurement": "IC50", "setting": "[3]", "result": 2, "unit": "µg/mL"}]}
{"compound": "CC(C)c1nc(C(=O)Nc2ccc(NC(=S)Nc3cc(Cl)cc(Cl)c3)cc2)cs1", "note": "[Example 1131, 2-Isopropyl-thiazole-4-carboxylic acid {4-[3-(3,5-dichloro-phenyl)-thioureido]-phenyl}-amide]", "values": [{"measurement": "IC50", "setting": "[1]", "result": 1.5, "unit": "µg/mL"}, {"measurement": "IC50", "setting": "[2]", "result": 9, "unit": "µg/mL"}, {"measurement": "IC50", "setting": "[3]", "result": 2.2, "unit": "µg/mL"}]}
{"compound": "CC(C)c1nc(C(=O)Nc2ccc(NC(=S)Nc3ccc(Cl)c(Cl)c3)cc2)cs1", "note": "[Example 1132, 2-Isopropyl-thiazole-4-carboxylic acid {4-[3-(3,4-dichloro-phenyl)-thioureido]-phenyl}-amide]", "values": [{"measurement": "IC50", "setting": "[1]", "result": 1.2, "unit": "µg/mL"}, {"measurement": "IC50", "setting": "[2]", "result": 3.9, "unit": "µg/mL"}, {"measurement": "IC50", "setting": "[3]", "result": 2.6, "unit": "µg/mL"}]}
{"compound": "CC(C)c1nc(C(=O)Nc2ccc(NC(=S)Nc3cc(C(F)(F)F)cc(C(F)(F)F)c3)cc2)cs1", "note": "[Example 1133, 2-Isopropyl-thiazole-4-carboxylic acid {4-[3-(3,5 bis-trifluoromethyl-phenyl)-thioureido]-phenyl}-amide]", "values": [{"measurement": "IC50", "setting": "[1]", "result": 1.5, "unit": "µg/mL"}, {"measurement": "IC50", "setting": "[2]", "result": "> 10", "unit": "µg/mL"}, {"measurement": "IC50", "setting": "[3]", "result": 6, "unit": "µg/mL"}]}
{"compound": "CCCCc1nc(C(=O)Nc2ccc(NC(=S)Nc3ccc(Cl)c(Cl)c3)cc2)cs1", "note": "[Example 1134, 2-Butyl-thiazole-4-carboxylic acid {4-[3-(3,4-dichloro-phenyl)-thioureido]-phenyl}-amide]", "values": [{"measurement": "IC50", "setting": "[1]", "result": 1, "unit": "µg/mL"}, {"measurement": "IC50", "setting": "[2]", "result": 1.6, "unit": "µg/mL"}, {"measurement": "IC50", "setting": "[3]", "result": 2.4, "unit": "µg/mL"}]}
{"compound": "CCCCc1nc(C(=O)Nc2ccc(NC(=S)Nc3ccc(Cl)c(C(F)(F)F)c3)cc2)cs1", "note": "[Example 1135, 2-Butyl-thiazole-4-carboxylic acid {4-[3-(4-chloro-3-trifluoromethyl-phenyl)-thioureido]-phenyl}-amide]", "values": [{"measurement": "IC50", "setting": "[1]", "result": 1.3, "unit": "µg/mL"}, {"measurement": "IC50", "setting": "[2]", "result": 7.5, "unit": "µg/mL"}, {"measurement": "IC50", "setting": "[3]", "result": 3.6, "unit": "µg/mL"}]}
{"compound": "CCCCc1nc(C(=O)Nc2ccc(NC(=S)Nc3cc(Cl)cc(Cl)c3)cc2)cs1", "note": "[Example 1136, 2-Butyl-thiazole-4-carboxylic acid {4-[3-(3,5-dichloro-phenyl)-thioureido]-phenyl}-amide]", "values": [{"measurement": "IC50", "setting": "[1]", "result": 1.6, "unit": "µg/mL"}, {"measurement": "IC50", "setting": "[2]", "result": 5, "unit": "µg/mL"}, {"measurement": "IC50", "setting": "[3]", "result": 2.9, "unit": "µg/mL"}]}
{"compound": "CCCCc1nc(C(=O)Nc2ccc(NC(=S)Nc3cc(C(F)(F)F)cc(C(F)(F)F)c3)cc2)cs1", "note": "[Example 1137, 2-Butyl-thiazole-4-carboxylic acid {4-[3-(3,5-bis-trifluoromethyl-phenyl)-thioureido]-phenyl}-amide]", "values": [{"measurement": "IC50", "setting": "[1]", "result": 0.6, "unit": "µg/mL"}, {"measurement": "IC50", "setting": "[2]", "result": 3.5, "unit": "µg/mL"}, {"measurement": "IC50", "setting": "[3]", "result": "> 10", "unit": "µg/mL"}]}
{"compound": "Cc1nc(C(=O)Nc2ccc(NC(=S)Nc3cc(Cl)cc(Cl)c3)cc2)cs1", "note": "[Example 1138, 2-Methyl-thiazole-4-carboxylic acid {4-[3-(3,5-dichloro-phenyl)-thioureido]-phenyl}-amide]", "values": [{"measurement": "IC50", "setting": "[1]", "result": 0.65, "unit": "µg/mL"}, {"measurement": "IC50", "setting": "[2]", "result": "> 10", "unit": "µg/mL"}, {"measurement": "IC50", "setting": "[3]", "result": "> 10", "unit": "µg/mL"}]}
{"compound": "Cc1nc(C(=O)Nc2ccc(NC(=S)Nc3ccc(Cl)c(Cl)c3)cc2)cs1", "note": "[Example 1139, 2-Methyl-thiazole-4-carboxylic acid {4-[3-(3,4-dichloro-phenyl)-thioureido]-phenyl}-amide]", "values": [{"measurement": "IC50", "setting": "[1]", "result": 1.2, "unit": "µg/mL"}, {"measurement": "IC50", "setting": "[2]", "result": 6, "unit": "µg/mL"}, {"measurement": "IC50", "setting": "[3]", "result": 3.7, "unit": "µg/mL"}]}
{"compound": "Cc1nc(C(=O)Nc2ccc(NC(=S)Nc3cc(C(F)(F)F)cc(C(F)(F)F)c3)cc2)cs1", "note": "[Example 1140, 2-Methyl-thiazole-4-carboxylic acid {4-[3-(3,5-bis-trifluoromethyl-phenyl)-thioureido]-phenyl}-amide]", "values": [{"measurement": "IC50", "setting": "[1]", "result": 1.6, "unit": "µg/mL"}, {"measurement": "IC50", "setting": "[2]", "result": 4, "unit": "µg/mL"}, {"measurement": "IC50", "setting": "[3]", "result": 3.5, "unit": "µg/mL"}]}
{"compound": "O=C(Nc1ccc(NC(=S)Nc2ccc(Cl)c(C(F)(F)F)c2)cc1)c1csc(-c2ccccc2)n1", "note": "[Example 1141, 2-Phenyl-thiazole-4-carboxylic acid {4-[3-(4-chloro-3-trifluoromethyl-phenyl)-thioureido]-phenyl}-amide]", "values": [{"measurement": "IC50", "setting": "[1]", "result": 1.9, "unit": "µg/mL"}, {"measurement": "IC50", "setting": "[2]", "result": "> 10", "unit": "µg/mL"}, {"measurement": "IC50", "setting": "[3]", "result": "> 10", "unit": "µg/mL"}]}
{"compound": "O=C(Nc1ccc(NC(=S)Nc2cc(Cl)cc(Cl)c2)cc1)c1csc(-c2ccccc2)n1", "note": "[Example 1142, 2-Phenyl-thiazole-4-carboxylic acid {4-[3-(3,5-dichloro-phenyl)-thioureido]-phenyl}-amide]", "values": [{"measurement": "IC50", "setting": "[1]", "result": 1.8, "unit": "µg/mL"}, {"measurement": "IC50", "setting": "[2]", "result": "> 10", "unit": "µg/mL"}, {"measurement": "IC50", "setting": "[3]", "result": "> 10", "unit": "µg/mL"}]}
{"compound": "O=C(Nc1ccc(NC(=S)Nc2ccc(Cl)c(Cl)c2)cc1)c1csc(-c2ccccc2)n1", "note": "[Example 1143, 2-Phenyl-thiazole-4-carboxylic acid {4-[3-(3,4-dichloro-phenyl)-thioureido]-phenyl}-amide]", "values": [{"measurement": "IC50", "setting": "[1]", "result": 7.5, "unit": "µg/mL"}, {"measurement": "IC50", "setting": "[2]", "result": "> 10", "unit": "µg/mL"}, {"measurement": "IC50", "setting": "[3]", "result": "> 10", "unit": "µg/mL"}]}
{"compound": "[1,2,3]Thiadiazole-4-carboxylic acid {4-[3-(3,4,5-chloro-4-isoxazol-5-yl-phenyl)-thioureido]-phenyl}-amide [Example 990]", "values": [{"measurement": "IC50 (ug/ml) HCMV", "setting": "[1]; HCMV in human foreskin fibroblasts", "result": 0.011, "unit": "µg/mL"}, {"measurement": "IC50 (ug/ml) VZV", "setting": "[2]; VZV strain Ellen in HFF cells", "result": 4.5, "unit": "µg/mL"}, {"measurement": "% inhibition 10 ug/ml VZV", "setting": "[2]; at 10 ug/ml, VZV strain Ellen in HFF cells", "result": 99, "unit": "%"}, {"measurement": "IC50 (ug/ml) HSV", "setting": "[3]; HSV-1 in Vero cells", "result": 8, "unit": "µg/mL"}]}
